Measured values as given in PubChem BioAssay (NCI).
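Growth conditions: 96-well plates. Treatment: test compound, 48 hours, 5 concentrations. Analysis: linear interpolation between bracketing concentrations; unreached endpoints set to highest concentration. Here, GI50 denotes the concentration required for 50% inhibition of growth. TGI denotes the concentration required for complete inhibition of growth.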

Columns and labels:
Assay in all cases: NCI anticancer screen, dose series, 48 h
MDA-MB-435 = test system: MDA-MB-435
HT29 colon = test system: HT29 colon
ACHN renal = test system: ACHN renal
NCI-H226 lung = test system: NCI-H226 lung
MOLT-4 leukemia = test system: MOLT-4 leukemia
COLO 205 colon = test system: COLO 205 colon
SK-MEL-28 melanoma = test system: SK-MEL-28 melanoma
HS 578T breast = test system: HS 578T breast
SF-268 CNS = test system: SF-268 CNS
IGROV1 ovarian = test system: IGROV1 ovarian
RXF 393 renal = test system: RXF 393 renal
HCC-2998 colon = test system: HCC-2998 colon
A498 renal = test system: A498 renal
T-47D breast = test system: T-47D breast
K-562 leukemia = test system: K-562 leukemia
SN12C renal = test system: SN12C renal
NCI-H522 lung = test system: NCI-H522 lung
U251 CNS = test system: U251 CNS
OVCAR-4 ovarian = test system: OVCAR-4 ovarian
MDA-MB-468 breast = test system: MDA-MB-468 breast
NCI-H23 lung = test system: NCI-H23 lung
SK-OV-3 ovarian = test system: SK-OV-3 ovarian
HCT-15 colon = test system: HCT-15 colon
UO-31 renal = test system: UO-31 renal
SW-620 colon = test system: SW-620 colon
BT-549 breast = test system: BT-549 breast
SK-MEL-2 melanoma = test system: SK-MEL-2 melanoma
SF-295 CNS = test system: SF-295 CNS
OVCAR-5 ovarian = test system: OVCAR-5 ovarian
MDA-MB-231 breast = test system: MDA-MB-231 breast
KM12 colon = test system: KM12 colon
OVCAR-3 ovarian = test system: OVCAR-3 ovarian
SF-539 CNS = test system: SF-539 CNS
A549 NSCLC = test system: A549 NSCLC
HL-60(TB) leukemia = test system: HL-60(TB) leukemia
SK-MEL-5 melanoma = test system: SK-MEL-5 melanoma
MALME-3M melanoma = test system: MALME-3M melanoma
OVCAR-8 ovarian = test system: OVCAR-8 ovarian
UACC-257 melanoma = test system: UACC-257 melanoma
M14 melanoma = test system: M14 melanoma
786-0 renal = test system: 786-0 renal
HOP-62 NSCLC = test system: HOP-62 NSCLC
SNB-19 CNS = test system: SNB-19 CNS
MCF7 breast = test system: MCF7 breast
UACC-62 melanoma = test system: UACC-62 melanoma
HCT-116 colon = test system: HCT-116 colon
TK-10 renal = test system: TK-10 renal
HOP-92 NSCLC = test system: HOP-92 NSCLC
SR leukemia = test system: SR leukemia
NCI-H460 lung = test system: NCI-H460 lung
CAKI-1 renal = test system: CAKI-1 renal
CCRF-CEM leukemia = test system: CCRF-CEM leukemia
EKVX NSCLC = test system: EKVX NSCLC

In the case of `COc1ccc(N=Nc2c(N)nn3c(N)c(C#N)c(-c4ccccc4)nc23)cc1`, the GI50 (MDA-MB-435) was over 100 µM, the TGI (MDA-MB-435) was over 100 µM and the GI50 (HT29 colon) was over 100 µM. The TGI (HT29 colon) was over 100 µM, the GI50 (ACHN renal) was 4.08 µM and the TGI (ACHN renal) was over 100 µM. It also gave a GI50 (NCI-H226 lung) of 2.56 µM, a TGI (NCI-H226 lung) of 24.8 µM and a GI50 (MOLT-4 leukemia) of over 100 µM. It also gave a TGI (MOLT-4 leukemia) of over 100 µM, a GI50 (COLO 205 colon) of over 100 µM and a TGI (COLO 205 colon) of over 100 µM. For the same molecule, the GI50 (SK-MEL-28 melanoma) was over 100 µM, the TGI (SK-MEL-28 melanoma) was over 100 µM and the GI50 (HS 578T breast) was 3 µM. The TGI (HS 578T breast) was 65 µM, the GI50 (SF-268 CNS) was 5.88 µM and the TGI (SF-268 CNS) was over 100 µM. The GI50 (IGROV1 ovarian) was 2.6 µM, the TGI (IGROV1 ovarian) was over 100 µM and the GI50 (RXF 393 renal) was 3.17 µM. It also gave a TGI (RXF 393 renal) of 12 µM, a GI50 (HCC-2998 colon) of over 100 µM and a TGI (HCC-2998 colon) of over 100 µM. For the same molecule, the GI50 (A498 renal) was over 100 µM, the TGI (A498 renal) was over 100 µM and the GI50 (T-47D breast) was 2.75 µM. For the same molecule, the TGI (T-47D breast) was over 100 µM, the GI50 (K-562 leukemia) was over 100 µM and the TGI (K-562 leukemia) was over 100 µM. For the same molecule, the GI50 (SN12C renal) was 5.8 µM, the TGI (SN12C renal) was over 100 µM and the GI50 (NCI-H522 lung) was 6.25 µM. For the same molecule, the TGI (NCI-H522 lung) was over 100 µM, the GI50 (U251 CNS) was 3.94 µM and the TGI (U251 CNS) was over 100 µM. It also gave a GI50 (OVCAR-4 ovarian) of 2.78 µM, a TGI (OVCAR-4 ovarian) of 29.3 µM and a GI50 (MDA-MB-468 breast) of 4.07 µM. It also gave a TGI (MDA-MB-468 breast) of over 100 µM, a GI50 (NCI-H23 lung) of 5.05 µM and a TGI (NCI-H23 lung) of over 100 µM. It also gave a GI50 (SK-OV-3 ovarian) of 6.04 µM, a TGI (SK-OV-3 ovarian) of over 100 µM and a GI50 (HCT-15 colon) of over 100 µM. It also gave a TGI (HCT-15 colon) of over 100 µM, a GI50 (UO-31 renal) of 8.22 µM and a TGI (UO-31 renal) of over 100 µM. For the same molecule, the GI50 (SW-620 colon) was over 100 µM, the TGI (SW-620 colon) was over 100 µM and the GI50 (BT-549 breast) was 4.29 µM. For the same molecule, the TGI (BT-549 breast) was over 100 µM, the GI50 (SK-MEL-2 melanoma) was 16.6 µM and the TGI (SK-MEL-2 melanoma) was over 100 µM. It also gave a GI50 (SF-295 CNS) of 4.03 µM, a TGI (SF-295 CNS) of over 100 µM and a GI50 (OVCAR-5 ovarian) of over 100 µM. It also gave a TGI (OVCAR-5 ovarian) of over 100 µM, a GI50 (MDA-MB-231 breast) of 3.66 µM and a TGI (MDA-MB-231 breast) of 50.5 µM. It also gave a GI50 (KM12 colon) of over 100 µM, a TGI (KM12 colon) of over 100 µM and a GI50 (OVCAR-3 ovarian) of 4.18 µM. It also gave a TGI (OVCAR-3 ovarian) of over 100 µM, a GI50 (SF-539 CNS) of 3.26 µM and a TGI (SF-539 CNS) of 18.6 µM. The GI50 (A549 NSCLC) was over 100 µM, the TGI (A549 NSCLC) was over 100 µM and the GI50 (HL-60(TB) leukemia) was over 100 µM. The TGI (HL-60(TB) leukemia) was over 100 µM, the GI50 (SK-MEL-5 melanoma) was 9.02 µM and the TGI (SK-MEL-5 melanoma) was over 100 µM. For the same molecule, the GI50 (MALME-3M melanoma) was 5.46 µM, the TGI (MALME-3M melanoma) was over 100 µM and the GI50 (OVCAR-8 ovarian) was 4.61 µM. For the same molecule, the TGI (OVCAR-8 ovarian) was over 100 µM, the GI50 (UACC-257 melanoma) was over 100 µM and the TGI (UACC-257 melanoma) was over 100 µM. For the same molecule, the GI50 (M14 melanoma) was over 100 µM, the TGI (M14 melanoma) was over 100 µM and the GI50 (786-0 renal) was 12.8 µM. For the same molecule, the TGI (786-0 renal) was over 100 µM, the GI50 (HOP-62 NSCLC) was 3.7 µM and the TGI (HOP-62 NSCLC) was 41.5 µM. It also gave a GI50 (SNB-19 CNS) of 5.06 µM, a TGI (SNB-19 CNS) of 44.1 µM and a GI50 (MCF7 breast) of 1.89 µM. It also gave a TGI (MCF7 breast) of over 100 µM, a GI50 (UACC-62 melanoma) of 20.9 µM and a TGI (UACC-62 melanoma) of over 100 µM. It also gave a GI50 (HCT-116 colon) of over 100 µM, a TGI (HCT-116 colon) of over 100 µM and a GI50 (TK-10 renal) of 5.88 µM. It also gave a TGI (TK-10 renal) of over 100 µM, a GI50 (HOP-92 NSCLC) of 2.65 µM and a TGI (HOP-92 NSCLC) of 52.6 µM. It also gave a GI50 (SR leukemia) of over 100 µM, a TGI (SR leukemia) of over 100 µM and a GI50 (NCI-H460 lung) of 4.06 µM. For the same molecule, the TGI (NCI-H460 lung) was over 100 µM, the GI50 (CAKI-1 renal) was 4.58 µM and the TGI (CAKI-1 renal) was over 100 µM. For the same molecule, the GI50 (CCRF-CEM leukemia) was over 100 µM, the TGI (CCRF-CEM leukemia) was over 100 µM and the GI50 (EKVX NSCLC) was 8.82 µM. For the same molecule, the TGI (EKVX NSCLC) was over 100 µM.
